Reference: US20130266636A1, “METHODS FOR BLOCKING CELL PROLIFERATION AND TREATING DISEASES AND CONDITIONS RESPONSIVE TO CELL GROWTH INHIBITION” (THE REGENTS OF THE UNIVERSITY OF CALIFORNIA, priority 2010, published 2013)

How the values were obtained:
c-Kit = c-Kit (Homo sapiens, UniProt P10721); details: cited from earlier work
phospho-S338 CRAF = biological target: T1, phospho-S338 CRAF (Mus musculus, UniProt Q99N57); assay: Phospho-S338 CRAF staining in orthotopic R40P murine pancreatic cancer tissues; format: in vivo, mice; details: systemic KG5, 3 days
T1 construct: immunofluorescent staining of phospho-S338 CRAF in orthotopic pancreatic cancer tissues untreated or systemically treated with KG5; from tissue; host or cells: orthotopic R40P murine pancreatic tumours in mice
Excerpt: FIG. 5 illustrates the effect of KG5 on orthotopic R40P murine pancreatic tumor cells after three days, as further discussed in Example 1, below.
FIG. 5 illustrates an immunofluorescent staining of phospho-S338 CRAF in orthotopic pancreatic cancer tissues untreated or systemically treated with KG5 for 3 days.

[1] = bFGF- or VEGF-stimulated endothelial cells; cited from earlier work
[2] = system: U-87 human glioblastoma cells; assay: Cells in pro-metaphase in orthotopic brain tumor xenografts; format: in vivo, mice; details: systemic KG5 50 mg/Kg, after three days
Method: Phosphorylation of CRAF on serine 338 has been linked to cell proliferation survival as well as breast cancer progression^9-11,14-16. To determine whether KG5 could similarly regulate phospho-5338 RAF in tumors, we analyzed orthotopic […] and brain tumor tissues for the presence of this marker before or after systemic delivery of the drug.
Tumors were generated by injection of RFP-labeled U-87 human glioblastoma cells (10^5 tumorcells in 2 μl of sterile PBS) into the brain of 6-8 week old female nude mice. Tumors were established for 3 weeks before beginning dosing. Mice were dosed with vehicle (10% HS-15) or 50 mg/kg KG5 (i.p. bid) for 3 days prior to harvest. Alternatively, U-87 cells stably expressing WT CRAF or the phospho-mimetic S338D CRAF mutant were injected into the brain of 6-8 week old female nude mice. Brains were harvested at day 15 and fluorescence images recorded using the IVIS-200™ imaging system (Xenogen Corp., Hopkinton, Mass.). Tumor sizes were measured as a function of fluorescence intensity using the ROI function of the IVIS Living Image Software. […]

[3] = system: XPA-1-RFP pancreatic tumor xenografts; assay: Orthotopic XPA-1-RFP pancreatic tumor xenograft in Nestin-GFP mice; format: in vivo
Method: FIG. 16 and FIG. 17 illustrate data showing that KG5 inhibits pancreatic tumor growth and reduces tumor vascular density, as described in Murphy (2010) Proc. Natl. Acad. Sci. USA, Mar. 2, 2010; vol. 107(9): 4299-4304. FIGS. 16A and 16B, and FIGS. 17A and 17B: Real-time fluorescent imaging of XPA-1-RFP pancreatic tumor xenografts in the pancreas of Nestin-GFP mice (n=5/group) treated with either vehicle (FIG. 16A, 17A) or KG5 (FIG. 16B, 17B) (50 mg/kg, i.p., bid). Drug treatments were started 3 days after surgical orthotopic implantation (SOT) of XPA-1-RFP tumors, and tumor progression was monitored every 3 days by whole-animal imaging (Scale bar, 10 mm). FIG. 17(C) graphically illustrates a plot of tumor surface area over time for the vehicle- and KG5-treated groups, Tumor surface area was calculated by adding the total pixels of both the ventral and lateral images of the tumor. *P=0.034. FIG. 17(D) graphically illustrates average body weight of the mice measured each day of whole-animal imaging described in A and B. FIG. 16(C) graphically illustrates total weights of resected primary tumors on day 15 post-SOT. *P=0.022.
Animals were systemically treated with either vehicle or KG5 (50 mg/kg, bid) beginning 3 days after surgical orthotopic implantation (SOI) of a tumor fragment. Tumor growth was monitored noninvasively by whole-body imaging. […] Animals treated with KG5 produced an average tumor weight of 26.7 mg compared to 74.1 mg for vehicle-treated animals (FIG. 16C). At this time, GFP-labeled blood vessels were imaged and tumor-associated blood vessel density was quantified by measuring the ratio of total blood vessel length to tumor volume. […] The mean vessel length/tumor volume was 2.5 mm/mm^3 compared to 0.2 mm/mm^3 for vehicle and KG5, respectively.
FIG. 18 further illustrates data from the studies of FIG. 16 and FIG. 17: FIG. 18(A) and FIG. 18(B) illustrate representative fluorescent images of endothelial GFP expression (GFP expression driven by the Nestin promoter) within the XPA-1-RFP tumors after resection. Images were taken 15 days post-SOI (Scale bar, 200 μm); FIG. 18(C) illustrates a plot of tumor vessel density from images acquired as in E, Blood vessels imaged as in E were converted to length (mm) and normalized to tumor volume (mm^3). *P=0.01.

Chain of c-Kit (P10721 26-976): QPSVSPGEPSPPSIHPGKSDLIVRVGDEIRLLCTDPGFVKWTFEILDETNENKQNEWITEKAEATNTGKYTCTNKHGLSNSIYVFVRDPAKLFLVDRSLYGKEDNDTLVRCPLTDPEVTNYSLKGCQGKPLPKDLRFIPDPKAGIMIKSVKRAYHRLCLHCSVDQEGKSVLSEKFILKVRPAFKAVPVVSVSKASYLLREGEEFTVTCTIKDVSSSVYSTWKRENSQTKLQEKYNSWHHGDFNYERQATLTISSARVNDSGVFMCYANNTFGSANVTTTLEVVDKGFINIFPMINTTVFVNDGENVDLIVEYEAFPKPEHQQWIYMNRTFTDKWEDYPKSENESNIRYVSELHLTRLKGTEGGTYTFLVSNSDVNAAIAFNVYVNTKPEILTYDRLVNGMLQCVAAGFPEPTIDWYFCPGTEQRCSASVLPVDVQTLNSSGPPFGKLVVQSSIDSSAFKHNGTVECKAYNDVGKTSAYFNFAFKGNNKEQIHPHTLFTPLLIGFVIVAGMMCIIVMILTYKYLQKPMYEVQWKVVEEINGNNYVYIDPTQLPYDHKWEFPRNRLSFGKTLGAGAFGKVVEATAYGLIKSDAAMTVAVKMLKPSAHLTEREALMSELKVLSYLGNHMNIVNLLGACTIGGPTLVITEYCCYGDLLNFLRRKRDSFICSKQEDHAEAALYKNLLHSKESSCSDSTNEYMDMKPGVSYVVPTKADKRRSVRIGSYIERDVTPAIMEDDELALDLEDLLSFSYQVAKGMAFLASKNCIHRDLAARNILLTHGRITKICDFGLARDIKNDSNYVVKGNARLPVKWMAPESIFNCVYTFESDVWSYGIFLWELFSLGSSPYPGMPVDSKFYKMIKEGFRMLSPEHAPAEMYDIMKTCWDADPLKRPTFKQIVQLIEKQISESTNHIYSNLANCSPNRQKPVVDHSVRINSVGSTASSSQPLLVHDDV

Compound: CSc1nc(N)cc(Oc2ccc(-c3nnc(Nc4cccc(C(F)(F)F)c4)[nH]3)cc2)n1 [KG5]
- inhibition of c-Kit (c-Kit): inhibits
- phospho-S338 CRAF in orthotopic pancreatic cancer tissues (phospho-S338 CRAF): inhibits serine 338 phosphorylation of CRAF
- p-Aid [1]: did not suppress
- cells at pro-metaphase in orthotopic brain tumor tissues [2]: accumulation of cells at pro-metaphase
- body weight ([3]; 50 mg/kg bid): no weight loss
- signs of lethargy ([3]; 50 mg/kg bid): did not demonstrate any signs of lethargy
- tumor growth by whole-body imaging ([3]; 50 mg/kg bid, 12 days post-SOI, compared to vehicle): completely suppressed
- average tumor weight ([3]; 50 mg/kg i.p. bid from 3 days after SOI, resected primary tumors day 15 post-SOI, vehicle 74.1 mg): 26.7 mg
- mean vessel length/tumor volume ([3]; 50 mg/kg i.p. bid, 15 days post-SOI, vehicle 2.5 mm/mm^3): 0.2 mm/mm^3
